In general, pKd refers to −log10 of the Kd, conventionally taken in molar units. One may read the pIC50 as the IC50 on a negative log10 scale, so that one unit is a factor of ten. One may read the pKi as −log10 of the Ki, conventionally taken in molar units.

Experiment [1] deals with T1, Asp1 (Homo sapiens, UniProt Q9Y5Z0).
T1 construct: A cDNA fragment encoding Asp1(EP0848062), amino acids 1 to 473; made in house; host or cells: CHO E1A (Chinese hamster ovary)
The experiment in a line: Asp1 fluorescence polarisation (competition) binding assay. Here is the method:
A competition assay has also been designed to identify compounds acting at the Asp1 active site. The hydroxyethylene inhibitor (I) has been modified by addition of 5-, 6-rhodamine green to the free N-terminal amine of the compound to create labelled ligand (II). [drawing 5]
The resulting compound was tested experimentally as follows to determine the Kd with Asp1-Fc enzyme, prepared as above.
A three dimensional analysis varying enzyme and ligand (II) was performed. Ligand concentration range was 1, 3, 10, 30 and 100 nM. Enzyme concentration range was from 100 nM down in serial twofold dilutions (11 dilutions+no enzyme control).
Ligand of appropriate concentration was prepared in 5% DMSO. The enzyme solutions were prepared in 2 times (×2) assay buffer (where ×1=50 mM sodium acetate, 20 mM sodium chloride, 5% glycerol, 0.1% CHAPS, pH 3.8). 5 ul of the enzyme solution (of varying concentration) was mixed with 5 ul of the ligand (of varying concentration) in a low volume 384 microtitre plate. The samples were allowed to equilibrate for 15 min before the fluorescence polarisation was read on an LJL ACQUEST platereader.
The Anisotropy values were plotted and the Kd for the tight binding interaction obtained.
Enzyme (at a fixed concentration of 50 nM), ligand (II) (at a fixed concentration of 5.0 nM) and test compound (5 uM down in twofold serial dilutions) were mixed in ×1 assay buffer in a final assay volume of 10 ul and allowed to equilibrate for 3 hrs. The fluorescence polarisation was then read. The experiment was performed in duplicate.

Experiment [2] deals with T1, Asp1. The experiment in a line: Fluorescence Resonance Energy Transfer (FRET) cleavage assay for Asp1. Type of experiment: biochemical. From the text: Fluorescence Resonsance Energy Transfer (FRET) Cleavage Assay for Asp1
A peptide (X) based on the sequence of the Swedish variant APP beta-site sequence has been doubly labelled for use in a FRET assay. [drawing 2] [drawing 3] This peptide includes the 11 residues spanning the Swedish variant beta-cleavage site (Ile-Ser-Glu-Val-Asn-Leu-Asp-Ala-Glu-Phe-Arg SEQ ID NO:2) with an N-terminal rhodamine green group and C-terminal tetramethylrhodamine group. This would allow cleavage of the intervening peptide sequence by Asp1 to be monitored by energy transfer between the two fluorescent groups.
In practice assays were conducted as follows:
The fluorescent peptide substrate (0.5 uM) was incubated with Asp1-Fc enzyme prepared as described above in a buffer containing 50 mM sodium acetate, 20 mM sodium chloride, 5% glycerol, 0.1% CHAPS (3-[(3-Cholamidopropyl)dimethylammonio]-1-propane-sulphonate), pH 3.8). The assays were started by addition of enzyme (50 nM final concentration) and cleavage monitored on a fluorescent platereader with 485 nm excitation, 538 nm emission. The C-terminal TAMRA group of the peptide acted as effective quencher, thus an increase in rhodamine green intensity was observed upon cleavage.
This assay was used to determine IC50 and Ki values for compounds of interest. […] Asp1 Fluorescence Polarisation Assay.

pIC50, pKd, pKi: −log10 of the molar value. Numbered stars: 1 amine (or outer) side, 2 acyl side, 3 side chain; on linkers, the order of the positions; unused ones are H or OH. Square brackets hold non-standard residues; d marks the D form. Peptide text beside a SMILES is read from it. * marks the point of attachment. Hexanoyl(5S-NH,4S-OH,6-Ph) = O=C(CC[C@H](O)[C@H](Cc1ccccc1)N[*:1])[*:2]; X2 = Nc1ccc2c(c1)Oc1ccccc1C21OC(=O)c2cc(C(=O)*)ccc21; X1 = CC(C)C[C@H](N[*:1])[C@@H](O)CCC(=O)[*:2]

T1 sequence (Q9Y5Z0 with tags, fused parts or gaps limits assumed): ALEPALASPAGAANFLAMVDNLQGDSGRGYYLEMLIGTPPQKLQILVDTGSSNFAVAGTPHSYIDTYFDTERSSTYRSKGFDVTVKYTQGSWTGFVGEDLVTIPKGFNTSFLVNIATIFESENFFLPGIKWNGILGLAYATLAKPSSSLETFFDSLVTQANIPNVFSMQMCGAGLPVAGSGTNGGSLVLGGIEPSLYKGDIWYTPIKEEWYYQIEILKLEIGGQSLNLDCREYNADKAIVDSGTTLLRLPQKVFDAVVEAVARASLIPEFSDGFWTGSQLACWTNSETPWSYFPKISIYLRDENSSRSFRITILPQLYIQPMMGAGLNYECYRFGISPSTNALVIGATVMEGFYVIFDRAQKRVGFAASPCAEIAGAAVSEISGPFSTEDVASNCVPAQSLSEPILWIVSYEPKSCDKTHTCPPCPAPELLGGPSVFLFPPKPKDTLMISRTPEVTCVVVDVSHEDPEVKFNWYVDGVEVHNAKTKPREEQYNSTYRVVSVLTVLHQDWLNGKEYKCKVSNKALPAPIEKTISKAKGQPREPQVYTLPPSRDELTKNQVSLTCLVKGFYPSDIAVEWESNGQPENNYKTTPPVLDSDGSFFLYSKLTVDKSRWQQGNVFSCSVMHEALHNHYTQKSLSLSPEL

On to `CC(C)[C@H](NC(=O)[C@H](CCC(=O)O)NC(=O)c1ccc2c(c1)C(=O)OC21c2ccccc2Oc2cc(N)ccc21)C(=O)N[C@@H](CC(N)=O)C(=O)N[C@@H](Cc1ccccc1)[C@@H](O)CCC(=O)N[C@@H](C)C(=O)N[C@@H](CCC(=O)O)C(=O)N[C@@H](Cc1ccccc1)C(=O)O` (stereo partly drawn) [ligand (II)] (X2-EVN[Hexanoyl(5S-NH,4S-OH,6-Ph)]AEF-OH), for which, on Asp1 [1] (tight binding interaction of labelled ligand with Asp1-Fc enzyme, from anisotropy values, pH 3.8), the pKd is 10.12.

Consider `CC(C)C[C@H](NC(=O)[C@H](C)NC(=O)[C@@H](NC(=O)[C@@H](N)CCC(=O)O)C(C)C)[C@@H](O)CCC(=O)N[C@@H](C)C(=O)N[C@@H](CCC(=O)O)C(=O)N[C@@H](Cc1ccccc1)C(=O)O` [Compound (III)] (H-EVA[X1]AEF-OH), for which the pIC50 on Asp1 [2] (FRET cleavage assay, Asp1-Fc enzyme) is 7.22. The “displacement of the fluorescent ligand (II)” value at Asp1 [1] (at the highest concentrations of test compound (5 uM down in twofold serial dilutions)) is “Complete displacement”. Also, the pKi on Asp1 [1] (competition against ligand (II) 5.0 nM, enzyme 50 nM, equilibrated 3 hrs, duplicate) was 7.30.

`CC(C)[C@H](NC(=O)[C@@H](N)CCC(=O)O)C(=O)N[C@@H](CC(N)=O)C(=O)N[C@@H](Cc1ccccc1)[C@@H](O)CCC(=O)N[C@@H](C)C(=O)N[C@@H](CCC(=O)O)C(=O)N[C@@H](Cc1ccccc1)C(=O)O` [compound (I)] (H-EVN[Hexanoyl(5S-NH,4S-OH,6-Ph)]AEF-OH) had a negative logarithm of the Ki (pKi) on Asp1 [2] (Asp1-Fc enzyme 50 nM, fluorescent peptide substrate 0.5 uM, pH 3.8) of 8.60.

The values above are taken from patent US20070072807A1, “Method of screening compounds” (SmithKline Beecham Corporation & SmithKline Beecham p.l.c., priority 1999, published 2007).
